The values below come from patent publication US11786525B1, “High-efficiency anti-tumor nano-drug delivery system containing hydralazine and preparation method thereof” (SHANGHAI INSTITUTE FOR ADVANCED STUDY ZHE JIANG UNIVERSITY, priority 2022, dated 2023).

Data set [1] has as its system mouse breast cancer cells (4T1). Nature of the data set: Cytotoxicity to 4T1 cells. Type of data set: cell-based. As to conditions: incubated 48 h, different concentrations. The procedure: (§1) At the cellular level, the cytotoxicity of HDZ to cells is first tested. HDZ at different concentrations is incubated with mouse breast cancer cells (4T1), human breast cancer cells (MBA-MD-231), and vascular epithelial cells (HUVEC) for 48 h. […] Then, the cytotoxicity of D-NPs, C-NPs, H-NPs, and DOX with 4T1, MBA-MD-231, and HUVEC cells is subsequently tested. The experimental results are shown in FIG. 3B, FIG. 3C and FIG. 3D. […] This is because there is a polypeptide cRGD on the surface of C-NPs targeting the integrin αvβ3 overexpressed on the surface of 4T1 and MBA-MD-231 tumor cells, which can make more C-NPs enter the tumor cells and improve their cytotoxicity.

The subject of data set [2] is vascular epithelial cells (HUVEC). Nature of the data set: Cytotoxicity to HUVEC cells. The data set is classed as cell-based. Conditions: incubated 48 h, different concentrations. The procedure: as §1
Data set [3] deals with human breast cancer cells (MBA-MD-231). Nature of the data set: Cytotoxicity to MBA-MD-231 cells. The data set is classed as cell-based. As to conditions: incubated 48 h, different concentrations. The procedure: as §1
For data set [4], the system named is 4T1 tumor-bearing mice. Nature of the data set: Biodistribution in 4T1 tumor-bearing mice (tissue grinding, fluorescence analysis). Type of data set: in vivo. Conditions: at 48 h versus 24 h. The procedure:
In addition, in order to detect the difference in the distribution of free doxorubicin, D-NPs and H-NPs in tumors and other organs, 4T1 tumor-bearing mice are sacrificed at different time intervals after intravenous injection of different drugs, the organs of the mice are taken out for tissue grinding and extraction, and finally fluorescence analysis is performed. It can be seen that compared with free doxorubicin, D-NPs and H-NPs have higher enrichment rates in various organs and tumors of mice, which are about 1.52 and about 1.81 times (24 h) higher than free doxorubicin, respectively. […] From the above cytotoxicity and blood circulation experiments, it can be inferred that this is because compared with free doxorubicin, D-NPs and H-NPs have longer blood circulation capacity in the blood and are not easy to be cleared by cells.

As for `NNc1nncc2ccccc12` [HDZ, hydralazine], the cytotoxicity entry in data set [1], in data set [2] and in data set [3] was “not very toxic” each time.
`COc1cccc2c1C(=O)c1c(O)c3c(c(O)c1C2=O)C[C@@](O)(C(=O)CO)C[C@@H]3O[C@H]1C[C@H](N)[C@H](O)[C@H](C)O1` [free doxorubicin, doxorubicin]: the “change of enrichment in the tumor site with extension of time” value in data set [4] is listed as “decreases”.
